row,Compound,melting point
1,"CN(C)c1cc2c(cc1C(F)(F)F)NC(=O)CC(c1cccc(-n3nncc3CNCC(F)(F)F)c1)=N2 [Example 76, 7-Dimethylamino-4-(3-{5-[(2,2,2-trifluoro-ethylamino)methyl]-[1,2,3]triazol-1-yl}-phenyl)8-trifluoromethyl-1,3-dihydro-benzo[b][1,4]diazepin-2-one]",168 to 170 °C
2,"CN(c1cc2c(cc1Cl)NC(=O)CC(c1ccnc(C#N)c1)=N2)C1CC1 [Example 34, 4-[7-Chloro-8-(cyclopropyl-methyl-amino)-4-oxo-4,5-dihydro-3H-benzo[b][1,4]diazepin-2-yl]-pyridine-2-carbonitrile]",199 to 201 °C
3,"CN(C)c1cc2c(cc1C(F)(F)F)NC(=O)CC(c1cccc(-n3cc(CNC4CC4)cn3)c1)=N2 [Example 79, 4-[3-(4-Cyclopropylaminomethyl-pyrazol-1-yl)-phenyl]-7-dimethylamino-8-trifluoromethyl-1,3-dihydro-benzo[b][1,4]diazepin-2-one]",135 °C
4,"CC(C)N(C)c1cc2c(cc1Cl)NC(=O)CC(c1cccc(-n3nncc3CN3CCC3)c1)=N2 [Example 129, 4-[3-(5-Azetidin-1-ylmethyl-[1,2,3]triazol-1-yl)-phenyl]-8-chloro-7-(isopropyl-methyl-amino)-1,3dihydro-benzo[b][1,4]diazepin-2-one]",177 °C
5,"O=C1CC(c2cccc(-n3ccnc3)c2)=Nc2cc(OCC(F)(F)F)c(-c3ccccc3F)cc2N1 [Example 23, 8-(2-Fluoro-phenyl)-4-(3-imidazol-1-yl-phenyl)-7-(2,2,2-trifluoro-ethoxy)-1,3-dihydro-benzo[b][1,4]diazepin-2-one]",208 to 210 °C
6,"COCc1cc(-c2cccc(C3=Nc4cc(N(C)C)c(Cl)cc4NC(=O)C3)c2)on1 [Example 21, 8-Chloro-7-dimethylamino-4-[3-(3-methoxymethyl-isoxazol-5-yl)-phenyl]-1,3-dihydro-benzo[b][1,4]diazepin-2-one]",191 °C
7,"COCCN(C)c1cc2c(cc1Cl)NC(=O)CC(c1cccc(-n3ccnn3)c1)=N2 [Example 14, 8-Chloro-7-[(2-methoxy-ethyl)-methyl-amino]-4-(3-[1,2,3]triazol-1-yl-phenyl)-1,3-dihydro-benzo[b][1,4]diazepin-2-one]",156 °C
8,"CCN(C)c1cc2c(cc1Cl)NC(=O)CC(c1cccc(-n3nncc3CO)c1)=N2 [Example 28, 8-Chloro-7-(ethyl-methyl-amino)-4-[3-(5-hydroxymethyl-[1,2,3]triazol-1-yl)-phenyl]-1,3-dihydro-benzo[b][1,4]diazepin-2-one]",206 °C (dec.)
9,"CN(C)c1cc2c(cc1C(F)(F)F)NC(=O)CC(c1cccc(-c3nocc3CO)c1)=N2 [Example 70, 7-Dimethylamino-4-[3-(4-hydroxymethyl-isoxazol-3-yl)-phenyl]-8-trifluoromethyl-1,3-dihydro-benzo[b][1,4]diazepin-2-one]",217 to 219 °C
10,"O=C1CC(c2cccc(-n3nncc3CO)c2)=Nc2cc(N3CCC3)c(C(F)(F)F)cc2N1 [Example 63, 7-Azetidin-1-yl-4-[3-(5-hydroxymethyl-[1,2,3]triazol-1-yl)-phenyl]-8-trifluoromethyl-1,3-dihydro-benzo[b][1,4]diazepin-2-one]",202 °C (dec.)
11,"N#Cc1cc(C2=Nc3cc(N4CCCC4)c(C(F)(F)F)cc3NC(=O)C2)ccn1 [Example 40, 4-(4-Oxo-8-pyrrolidin-1-yl-7-trifluoromethyl-4,5-dihydro-3H-benzo[b][1,4]diazepin-2-yl)-pyridine-2-carbonitrile]",188 °C (dec.)
12,"O=C1CC(c2cccc(-n3nncc3CO)c2)=Nc2cc(OCC(F)(F)F)c(-c3ccccc3F)cc2N1 [Example 26, 8-(2-Fluoro-phenyl)-4-[3-(5-hydroxymethyl-[1,2,3]triazol-1-yl)-phenyl]-7-(2,2,2-trifluoro-ethoxy)-1,3-dihydro-benzo[b][1,4]diazepin-2-one]",232 to 234 °C
13,"CN(C)c1cc2c(cc1Cl)NC(=O)CC(c1cccc(-n3ccnn3)c1)=N2 [Example 2, 8-Chloro-7-dimethylamino-4-(3-[1,2,3]triazol-1-yl-phenyl)-1,3-dihydro-benzo[b][1,4]diazepin-2-one]",222 to 225 °C
14,"Cc1cc(-c2cccc(C3=Nc4cc(N5CCCC5)c(C)cc4NC(=O)C3)c2)on1 [Example 135, 8-Methyl-4-[3-(3-methyl-isoxazol-5-yl)-phenyl]-7-pyrrolidin-1-yl-1,3-dihydro-benzo[b][1,4]diazepin-2-one]",211 °C
15,"CN(C)c1cc2c(cc1Cl)NC(=O)CC(c1cccc(-n3cncn3)c1)=N2 [Example 73, 8-Chloro-7-dimethylamino-4-(3-[1,2,4]triazol-1-yl-phenyl)-1,3-dihydro-benzo[b][1,4]diazepin-2-one]",239 to 241 °C
16,"CC(C)CN(C)c1cc2c(cc1Cl)NC(=O)CC(c1cccc(-n3nncc3CN(C)C)c1)=N2 [Example 128, 8-Chloro-4-[3-(5-dimethylaminomethyl-[1,2,3]triazol-1-yl)-phenyl]-7-(isobutyl-methyl-amino)-1,3-dihydro-benzo[b][1,4]diazepin-2-one]",199 °C
17,"Cc1cc2c(cc1N(C)C)N=C(c1cccc(-n3nncc3CO)c1)CC(=O)N2 [Example 90, 7-Dimethylamino-4-[3-(5-hydroxymethyl-[1,2,3]triazol-1-yl)-phenyl]-8-methyl-1,3-dihydro-benzo[b][1,4]diazepin-2-one]",190 °C
18,"Cc1cc(-c2cccc(C3=Nc4cc(N5CCCCC5)c(C#N)cc4NC(=O)C3)c2)on1 [Example 112, 2-[3-(3-Methyl-isoxazol-5-yl)-phenyl]-4-oxo-8-piperidin-1-yl-4,5-dihydro-3H-benzo[b][1,4]diazepine-7-carbonitrile]",246 °C
19,"CN(C)c1cc2c(cc1Cl)NC(=O)CC(c1cccc(-n3nncc3CN3CCCC3)c1)=N2 [Example 45, 8-Chloro-7-dimethylamino-4-[3-(5-pyrrolidin-1-ylmethyl-[1,2,3]triazol-1-yl)-phenyl]-1,3-dihydro-benzo[b][1,4]diazepin-2-one]",180 to 182 °C
20,"CN(C)c1cc2c(cc1C#N)NC(=O)CC(c1cccc(-n3nncc3CO)c1)=N2 [Example 95, 8-Dimethylamino-2-[3-(5-hydroxymethyl-[1,2,3]triazol-1-yl)-phenyl]-4-oxo-4,5-dihydro-3H-benzo[b][1,4]diazepine-7-carbonitrile]",234 °C
21,"CN(C)c1cc2c(cc1C(F)(F)F)NC(=O)CC(c1cccc(-n3ccnc3)c1)=N2 [Example 66, 7-Dimethylamino-4-(3-imidazol-1-yl-phenyl)-8-trifluoromethyl-1,3-dihydro-benzo[b][1,4]diazepin-2-one]",203 to 205 °C
22,"CN(C)c1cc2c(cc1Cl)NC(=O)CC(c1cccc(-n3nncc3CN3CCC3)c1)=N2 [Example 48, 4-[3-(5-Azetidin-1-ylmethyl-[1,2,3]triazol-1-yl)-phenyl]-8-chloro-7-dimethylamino-1,3-dihydro-benzo[b][1,4]diazepin-2-one]",153 °C

# Now from value to molecule:
row,melting point,Compound
1,190 to 193 °C,"Cc1sc(CO)nc1-c1cccc(C2=Nc3cc(N(C)C)c(C(F)(F)F)cc3NC(=O)C2)c1 [Example 216, 7-Dimethylamino-4-[3-(2-hydroxymethyl-5-methyl-thiazol-4-yl)-phenyl]-8-trifluoromethyl-1,3-dihydro-benzo[b][1,4]diazepin-2-one]"
2,182 °C,"CC(C)CN(C)c1cc2c(cc1C(F)(F)F)NC(=O)CC(c1cccc(-n3cccn3)c1)=N2 [Example 171, 7-(Isobutyl-methyl-amino)-4-(3-pyrazol-1-yl-phenyl)-8-trifluoromethyl-1,3-dihydro-benzo[b][1,4]diazepin-2-one]"
3,163 to 164 °C,"CCCN(C)c1cc2c(cc1Cl)NC(=O)CC(c1cccc(-c3coc(C)n3)c1)=N2 [Example 198, 8-Chloro-4-[3-(2-methyl-oxazol-4-yl)-phenyl]-7-(methyl-propyl-amino)-1,3-dihydro-benzo[b][1,4]diazepin-2-one]"
4,247 to 248 °C,"CN(C)c1cc2c(cc1Cl)NC(=O)CC(c1cccc(-c3csc(N)n3)c1)=N2 [Example 194, 4-[3-(2-Amino-thiazol-4-yl)-phenyl]-8-chloro-7-dimethylamino-1,3-dihydro-benzo[b][1,4]diazepin-2-one]"
5,225 °C,"Cc1cc(-c2cccc(C3=Nc4cc(NC(C)C)c(Cl)cc4NC(=O)C3)c2)on1 [Example 160, 8-Chloro-7-isopropylamino-4-[3-(3-methyl-isoxazol-5-yl)-phenyl]-1,3-dihydro-benzo[b][1,4]diazepin-2-one]"
6,202 °C,"CC(C)CN(C)c1cc2c(cc1C(F)(F)F)NC(=O)CC(c1cccc(-n3ccnn3)c1)=N2 [Example 176, 7-(Isobutyl-methyl-amino)-4-(3-[1,2,3]triazol-1-yl-phenyl)-8-trifluoromethyl-1,3-dihydro-benzo[b][1,4]diazepin-2-one]"
7,212 °C,"CC(C)CNc1cc2c(cc1Cl)NC(=O)CC(c1cccc(-n3ccnc3)c1)=N2 [Example 178, 8-Chloro-4-(3-imidazol-1-yl-phenyl)-7-isobutylamino-1,3-dihydro-benzo[b][1,4]diazepin-2-one]"
8,176 to 178 °C,"CN(C)c1cc2c(cc1Cl)NC(=O)CC(c1cccc(-c3csc(CO)n3)c1)=N2 [Example 193, 8-Chloro-7-dimethylamino-4-[3-(2-hydroxymethyl-thiazol-4-yl)-phenyl]-1,3-dihydro-benzo[b][1,4]diazepin-2-one]"
9,211 to 213 °C,"CCCN(C)c1cc2c(cc1Cl)NC(=O)CC(c1cccc(-c3nc(CO)cs3)c1)=N2 [Example 184, 8-Chloro-4-[3-(4-hydroxymethyl-thiazol-2-yl)-phenyl]-7-(methyl-propyl-amino)-1,3-dihydro-benzo[b][1,4]diazepin-2-one]"
10,208 to 209 °C,"Cc1nc(-c2cccc(C3=Nc4cc(N(C)C)c(C(F)(F)F)cc4NC(=O)C3)c2)c(C)s1 [Example 214, 7-Dimethylamino-4-[3-(2,5-dimethyl-thiazol-4-yl)-phenyl]-8-trifluoromethyl-1,3-dihydro-benzo[b][1,4]diazepin-2-one]"
